Laboratory results: patent US20220095618A1, “HERBICIDAL COMPOSITIONS” (SYNGENTA CROP PROTECTION AG, priority 2019, published 2022)

Columns and labels:
Assay in all cases: Post-emergence efficacy of compounds of Formula (I) (B1), glasshouse
Assay type in all cases: in vivo
[1] = system: Ipomoea hederacea (IPOHE); settings: Application Rate 500 g/Ha, evaluated after 13 days
Method in brief: (§1)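 Damage was scored visually 13 days after spraying (0 = none, 100 = total). Plants 14 days old were treated post-emergence via track sprayer at 200 litres/ha, using a formulation of acetone plus IF50 diluted in sodium lauryl ether sulphate (0.25% or 1%) with 1% ammonium sulphate.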

[2] = system: Echinochloa crus-galli (ECHCG); settings: Application Rate 500 g/Ha, evaluated after 13 days
Method in brief: as §1

[3] = system: Amaranthus palmeri (AMAPA); settings: Application Rate 500 g/Ha, evaluated after 13 days
Method in brief: as §1

[4] = system: Digitaria sanguinalis (DIGSA); settings: Application Rate 500 g/Ha, evaluated after 13 days
Method in brief: as §1

Lolium perenne (LOLPE) = settings: Application Rate 500 g/Ha, evaluated after 13 days
Method in brief: as §1

Eleusine indica (ELEIN) = settings: Application Rate 500 g/Ha, evaluated after 13 days; for pest or weed control at 500 g/ha: Eleusine indica, post-emergence, 312 h, read-out: Control of ELEIN after post-emergence application (100=total damage to plant; 0=no damage to plant)
Method in brief: as §1

[5] = system: Chenopodium album (CHEAL); settings: Application Rate 500 g/Ha, evaluated after 13 days
Method in brief: as §1

Setaria faberi (SETFA) = settings: Application Rate 500 g/Ha; evaluated after 13 days
Method in brief: as §1

[6] = system: Euphorbia heterophylla (EPHHL); settings: Application Rate 500 g/Ha; evaluated after 13 days
Method in brief: as §1

SMILES | Control of IPOHE after post-emergence application (100=total damage to plant; 0=no damage to plant) [1] | Control of ECHCG after post-emergence application (100=total damage to plant; 0=no damage to plant) [2] | Control of AMAPA after post-emergence application (100=total damage to plant; 0=no damage to plant) [3] | Control of DIGSA after post-emergence application (100=total damage to plant; 0=no damage to plant) [4] | pest or weed control at 500 g/ha (Lolium perenne (LOLPE); Lolium perenne, post-emergence, 312 h, read-out: Control of LOLPE after post-emergence application (100=total damage to plant; 0=no damage to plant)) [%] | pest or weed control at 500 g/ha (Eleusine indica (ELEIN)) [%] | Control of CHEAL after post-emergence application (100=total damage to plant; 0=no damage to plant) [5] | Control of SETFA after post-emergence application (100=total damage to plant; 0=no damage to plant) (Setaria faberi (SETFA)) | Control of EPHHL after post-emergence application (100=total damage to plant; 0=no damage to plant) [6] | pest or weed control at 500 g/ha ([1]; Ipomoea hederacea, post-emergence, 312 h, read-out: Control of IPOHE after post-emergence application (100=total damage to plant; 0=no damage to plant)) [%] | pest or weed control at 500 g/ha ([2]; Echinochloa crus-galli, post-emergence, 312 h, read-out: Control of ECHCG after post-emergence application (100=total damage to plant; 0=no damage to plant)) [%] | pest or weed control at 500 g/ha ([3]; Amaranthus palmeri, post-emergence, 312 h, read-out: Control of AMAPA after post-emergence application (100=total damage to plant; 0=no damage to plant)) [%] | pest or weed control at 500 g/ha ([4]; Digitaria sanguinalis, post-emergence, 312 h, read-out: Control of DIGSA after post-emergence application (100=total damage to plant; 0=no damage to plant)) [%] | Control of LOLPE after post-emergence application (100=total damage to plant; 0=no damage to plant) (Lolium perenne (LOLPE)) | pest or weed control at 500 g/ha ([5]; Chenopodium album, post-emergence, 312 h, read-out: Control of CHEAL after post-emergence application (100=total damage to plant; 0=no damage to plant)) [%] | Control of ELEIN after post-emergence application (100=total damage to plant; 0=no damage to plant) (Eleusine indica (ELEIN))
O=C(O)CC[n+]1ccc(-c2cccnn2)cn1.[Cl-] [Compound 1.027, 3-(4-pyridazin-3-ylpyridazin-1-ium-1-yl)propanoic acid chloride] | 30 | 100 | 100 | 100 | 100 | 80 | 100 | 100 | 100 |  |  |  |  |  |  | 
O=C(O)CC[n+]1ccc(-c2cnccn2)cn1.O=C([O-])C(F)(F)F [Compound 1.005, 3-(4-pyrazin-2-ylpyridazin-1-ium-1-yl)propanoic acid 2,2,2-trifluoroacetate] |  |  |  |  |  | 100 |  | 60 | 70 | 30 | 100 | 100 | 100 | 80 | 100 | 
O=C(O)CC[n+]1ccc(-c2cnccn2)cn1.[Cl-] [Compound 1.012, 3-(4-pyrazin-2-ylpyridazin-1-ium-1-yl)propanoic acid chloride] | 20 | 90 | 100 | 100 |  |  | 100 | 90 | 100 |  |  |  |  | 50 |  | 90
